Holding throughout (experiment): relative viability (nuclei count vs DMSO), 5 days (fraction); higher = more cells survive
Compound in the test “Doramapimod + Dasatinib”: Cc1ccc(-n2nc(C(C)(C)C)cc2NC(=O)Nc2ccc(OCCN3CCOCC3)c3ccccc23)cc1 [Doramapimod] + Cc1nc(Nc2ncc(C(=O)Nc3c(C)cccc3Cl)s2)cc(N2CCN(CCO)CC2)n1 [Dasatinib] (partner 0.075 µM)
In short, it runs like this:
(§1)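 One day after seeding in 1536-well plates, lung cancer cell lines were dosed by pin tool. Dosing was either single-drug or a fixed anchor-drug dose plus five library-drug doses (not always all listed) in √10 steps. After 5 days, nuclei were stained in one fix-and-stain step and counted on 4× images, and relative viability is the nuclei count of treated wells over that of vehicle wells, given as the median of duplicate plates.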

Compound in the test “Doramapimod + OSI-027”: Cc1ccc(-n2nc(C(C)(C)C)cc2NC(=O)Nc2ccc(OCCN3CCOCC3)c3ccccc23)cc1 [Doramapimod] + COc1cccc2cc(-c3nc([C@H]4CC[C@H](C(=O)O)CC4)n4ncnc(N)c34)[nH]c12 [OSI-027] (partner 0.5 µM)
In short, it runs like this: as §1

Compound in the test “IPA-3 + Tozasertib”: C1=CC=C2C(=C1)C=CC(=C2SSC3=C(C=CC4=CC=CC=C43)O)O [IPA-3] + Cc1cc(Nc2cc(N3CCN(C)CC3)nc(Sc3ccc(NC(=O)C4CC4)cc3)n2)n[nH]1 [Tozasertib] (partner 0.1 µM)
In short, it runs like this:
as §1

Compound in the test “IPA-3 + Linsitinib”: C1=CC=C2C(=C1)C=CC(=C2SSC3=C(C=CC4=CC=CC=C43)O)O [IPA-3] + C[C@]1(O)C[C@@H](c2nc(-c3ccc4ccc(-c5ccccc5)nc4c3)c3c(N)nccn32)C1 [Linsitinib] (partner 1 µM)
A digest of the protocol:
as §1

Turning to UMC-11, the relative viability is 0.435 with Doramapimod + Dasatinib (first compound 0.02 µM); 0.447 with Doramapimod + Dasatinib (first compound 0.06325 µM); 0.46 with Doramapimod + Dasatinib (first compound 0.2 µM); 0.52 with Doramapimod + Dasatinib (first compound 0.6325 µM); 0.368 with Doramapimod + Dasatinib (first compound 2 µM); 0.49 with Doramapimod + OSI-027 (first compound 0.02 µM). In addition, the relative viability was 0.385 with Doramapimod + OSI-027 (first compound 0.06325 µM); 0.472 in the test with Doramapimod + OSI-027 (first compound 0.2 µM); 0.438 with Doramapimod + OSI-027 (first compound 0.6325 µM); 0.444 with Doramapimod + OSI-027 (first compound 2 µM); 0.202 with IPA-3 + Tozasertib (first compound 0.2 µM); 0.205 with IPA-3 + Tozasertib (first compound 0.6325 µM). The relative viability in the test with IPA-3 + Tozasertib (first compound 2 µM) was 0.215; in the test with IPA-3 + Tozasertib (first compound 6.325 µM), 0.224; with IPA-3 + Tozasertib (first compound 20 µM), 0.225; with IPA-3 + Linsitinib (first compound 0.2 µM), 1.28; with IPA-3 + Linsitinib (first compound 0.6325 µM), 0.923; in the test with IPA-3 + Linsitinib (first compound 2 µM) it was 1.07. The results for the relative viability with IPA-3 + Linsitinib (first compound 6.325 µM) and in the test with IPA-3 + Linsitinib (first compound 20 µM) were 1.04 and 1.24, respectively.

The values are drawn from the supplement of paper PMC10307832.
